Data from patent publication US20220143123A1, “Prevention of Pathological Coagulation in COVID-19 and other Inflammatory Conditions” (priority 2020, published 2022).
“Also recorded” adds a separate entry of the source. Where two headings read alike, the source gives them in different places.

Columns and labels:
[1] = test system: Tissue Factor; assay: TNF-alpha induced Tissue Factor expression in HUVEC, flow cytometry; type: cell-based, human; conditions: TNF-alpha stimulation 48 hours
Method: In the experiments below, human umbilical vein endothelial cells (HUVEC) where purchased from AllCells and grown in Opti-MEM media with complete fetal calf serum. Cells were stimulated with the indicated concentrations of TNF-alpha for 48 hours and incubated with the indicated concentrations of individual components of QuadraMune™ as well as the combination. Quantification of Tissue Factor was performedby flow cytometry and expressed as mean fluorescent intensity (MFI).

[2] = test system: LPS-challenged macrophages; conditions: pre-incubated 6 h (0 to 50 μM), LPS 24 h; cited from earlier work
[3] = test system: BALB/c mice with LPS-induced ARDS; conditions: cited from earlier work
[4] = test system: Nrf2 (+/+) primary peritoneal macrophages; conditions: cited from earlier work
[5] = test system: apoE(−/−) mice; conditions: injection; cited from earlier work
[6] = test system: lectin-like oxLDL receptor-1 (LOX-1); conditions: in vitro and in vivo; cited from earlier work
[7] = test system: interleukin-1, interleukin-6, interleukin-8, TNF-alpha; conditions: cited from earlier work
[8] = test system: NK cell; assay: Nanostilbene in cancer patients: NK cell activity and interferon gamma production; type: in vivo, human; conditions: pterostilbene administered in the form of nanostilbene in cancer patients
[9] = test system: human umbilical vein VECs (HUVECs); conditions: oxLDL 200 μg/ml; cited from earlier work
[10] = animal studies; cited from earlier work
[11] = test system: lipopolysaccharide-induced inflammatory reactions; conditions: cited from earlier work
[12] = test system: mice challenged with endotoxin (LPS O111:B4) or live Escherichia coli; conditions: cited from earlier work; for concentration of IL-1α: controls 1187.0±278.64
[13] = test system: rats subjected to myocardial ischemia and reperfusion; conditions: 10 mg/kg intravenously then 10 mg/kg/h infusion; cited from earlier work
[14] = test system: nuclear factor-κB (NF-κB); conditions: macrophage foam cells; cited from earlier work
[15] = test system: C57BL6 mice; conditions: 10 mg/kg intraperitoneally, 72 h after CL2P; cited from earlier work
[16] = test system: mice; conditions: cited from earlier work
[17] = test system: mice with LPS-induced ARDS; conditions: 10 mg/kg ip; cited from earlier work
[18] = test system: male Sprague-Dawley rats; conditions: 10 mg/kg intraperitoneally at 1 and 6 h after CL2P and every 12 h; cited from earlier work
[19] = test system: lipopolysaccharide-activated macrophages; conditions: cited from earlier work
[20] = test system: mice with experimental colitis; conditions: 50 and 100 mg/kg/day; cited from earlier work
[21] = 50 mg/kg, LPS 5 mg/kg 3 days later

Compound: C[S+]([O-])CCCCN=C=S (stereo not drawn) [sulforaphane, 1-isothiocyanato-4-(methylsulfinyl)-butane]
- TNF-alpha induced Tissue Factor expression (mean fluorescent intensity) [1]: reduction of TNF-alpha induced Tissue Factor expression
- TNF-alpha induced Tissue Factor expression (mean fluorescent intensity) ([1]; listed as Sulforaphane): reduces inflammation induced tissue factor expression
- expression of NO and cytokines [2]: able to prevent the expression of NO and cytokines
- serum levels of IL-6 and TNF-α, nuclear factor-κB protein expression ([3]; 50 mg/kg, ELISA): significantly decreased
- lactate dehydrogenase (LDH) activity [3, 21]: significantly decreased
- wet-to-dry ratio of the lungs [3, 21]: significantly decreased
- PGE2 production, COX-2 and MMP-9 protein expression, iNOS activity ([3]; 50 mg/kg): significantly inhibited
- Nrf2/antioxidant response element (ARE) pathway ([3]; pre-treatment): activated
- HO-1 expression ([4]; LPS-stimulated Nrf2 (+/+) macrophages): significantly augmented
- LPS-stimulated mRNA expression, protein expression and production of TNF-alpha, IL-1beta, COX-2 and iNOS ([4]; pretreatment, Nrf2 (+/+) macrophages): potently inhibited

Compound: trans-3,5-dimethoxy-4-hydroxystilbene [pterostilbene]
- number of TUNEL-positive cells in the endothelium of atherosclerotic plaque [5]: strongly decreased the number of TUNEL-positive cells
- TNF-alpha induced Tissue Factor expression (mean fluorescent intensity) [1]: reduction of TNF-alpha induced Tissue Factor expression
- TNF-alpha induced Tissue Factor expression (mean fluorescent intensity) ([1]; listed as Pterostilbene): reduces inflammation induced tissue factor expression
- LOX-1 expression [6]: inhibited the expression of lectin-like oxLDL receptor-1 (LOX-1)
- inhibition of inflammatory cytokines (interleukin-1, interleukin-6, interleukin-8, TNF-alpha) [7]: inhibit inflammatory cytokines associated with ARDS
- NK cell activity [8]: increased NK cell activity
- interferon gamma production [8]: increased
- protection against oxLDL-induced cell shrinkage, chromatin condensation, nuclear fragmentation, apoptosis [9]: protected against such injuries
- bioavailability [10]: 80%

Compound: CC1=CC(=O)C(C(C)C)=CC1=O [thymoquinone]
- TNF-alpha induced Tissue Factor expression (mean fluorescent intensity) [1]: reduction of TNF-alpha induced Tissue Factor expression
- TNF-alpha induced Tissue Factor expression (mean fluorescent intensity) ([1]; listed as Thymoquinone): reduces inflammation induced tissue factor expression
- lipopolysaccharide-induced inflammatory reactions [11]: suppressed effectively the lipopolysaccharide-induced inflammatory reactions
- concentration of nitric oxide ([11]; marker of inflammation): reduced significantly the concentration of nitric oxide
- concentration of IL-1α ([12]; 0.75 mg/kg dose): 310.8 ± 70.93 pg/mL
- IL-10 levels ([12]; 0.75 mg/kg, controls 5505.2±333.96): 2885.0 ± 553.98 pg/mL
- concentration of IL-1α ([12]; 1 mg/kg group): 428.3 ± 71.32 pg/mL
- levels of TNF-α and IL-2 ([12]; P values=0.1817 and 0.0851): relatively lower levels of TNF-α and IL-2
- reduction of mortality ([12]; mice, sepsis): 80-90%
- renal and hepatic biomarker profiles ([12]; mice, sepsis): improved both renal and hepatic biomarker profiles

Compound: epigallocatechin-3-gallate [EGCG]
- myocardial damage and myeloperoxidase activity [13]: reduced myocardial damage and myeloperoxidase activity
- plasma IL-6 and creatine phosphokinase levels [13]: decreased
- TNF-alpha induced Tissue Factor expression (mean fluorescent intensity) [1]: reduces inflammation induced tissue factor expression; also recorded: reduction of TNF-alpha induced Tissue Factor expression
- TNF-α-induced NF-κB activity [14]: inhibition of the TNF-α-induced nuclear factor-κB (NF-κB) activity
- survival [15]: significantly improved
- rescue from lethal sepsis ([16]; first dose 24 hours after cecal ligation and puncture): rescued mice from lethal sepsis
- protection against lethal endotoxemia ([16]; intraperitoneal administration): protected mice against lethal endotoxemia
- expression of TNF-α, IL-1β and IL-6 in lung, serum and bronchoalveolar lavage fluid [17]: significantly decreased
- hypotension (mean arterial blood pressure) [18]: significantly improved
- activation of nuclear factor-kappaB ([19]; electrophoretic mobility shift assay): blocked the activation of nuclear factor-kappaB
- nitric oxide (NO) generation ([19]; marker of activated macrophages): inhibit nitric oxide (NO) generation
- plasma levels of IL-10 and TGF-β1 [20]: increasing the plasma levels of IL-10 and TGF-β1
- release of IL-6 and IL-17 [20]: reduce the release of IL-6 and IL-17
